Data reported in patent US6737383B1, “Herbicidal oxadiazolidines” (priority 1999, dated 2004).

How the values were obtained:
bedstraw = assay: Test B pre/postemergence bedstraw; assay type: in vivo, Galium aparine; settings: Preemergence
Summary of the method: (§1)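 Response is a visual 0-to-10 score relative to untreated plants, where 0 means no effect and 10 means complete control, taken twelve to sixteen days after application. Treatments went onto soil at planting and onto foliage of 1- to 4-leaf plants, using a surfactant-containing non-phytotoxic solvent.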

blackgrass = assay: Test B pre/postemergence blackgrass; assay type: in vivo, Alopecurus myosuroides; settings: for Blackgrass plant response rating: scale of 0 to 10 where 0 is no effect and 10 is complete control
Summary of the method: as §1

surinam grass = assay: Test B pre/postemergence surinam grass; assay type: in vivo, Brachiaria decumbens; settings: for B. signalgrass plant response rating: scale of 0 to 10 where 0 is no effect and 10 is complete control
Summary of the method: as §1

cocklebur = assay: Test B pre/postemergence cocklebur; assay type: in vivo, Xanthium strumarium; settings: for Cocklebur plant response rating: scale of 0 to 10 where 0 is no effect and 10 is complete control
Summary of the method: as §1

corn = assay: Test B pre/postemergence corn; assay type: in vivo, Zea mays; settings: for Corn plant response rating: scale of 0 to 10 where 0 is no effect and 10 is complete control
Summary of the method: as §1

crabgrass = assay: Test B pre/postemergence crabgrass; assay type: in vivo, Digitaria sanguinalis; settings: for Crabgrass plant response rating: scale of 0 to 10 where 0 is no effect and 10 is complete control
Summary of the method: as §1

soybean = assay: Test B pre/postemergence soybean; assay type: in vivo, Glycine max; settings: for Soybean plant response rating: scale of 0 to 10 where 0 is no effect and 10 is complete control
Summary of the method: as §1

sugar beet = assay: Test B pre/postemergence sugar beet; assay type: in vivo, Beta vulgaris; settings: for Sugarbeets plant response rating: scale of 0 to 10 where 0 is no effect and 10 is complete control
Summary of the method: as §1

velvetleaf = assay: Test B pre/postemergence velvetleaf; assay type: in vivo, Abutilon theophrasti; settings: for Velvetleaf plant response rating: scale of 0 to 10 where 0 is no effect and 10 is complete control
Summary of the method: as §1

wheat = assay: Test B pre/postemergence wheat; assay type: in vivo, Triticum aestivum; settings: for Wheat plant response rating: scale of 0 to 10 where 0 is no effect and 10 is complete control
Summary of the method: as §1

wild oat = assay: Test B pre/postemergence wild oat; assay type: in vivo, Avena fatua; settings: for Wild oats plant response rating: scale of 0 to 10 where 0 is no effect and 10 is complete control
Summary of the method: as §1

purple nutsedge = assay: Test B pre/postemergence purple nutsedge; assay type: in vivo, Cyperus rotundus; settings: for Nutsedge plant response rating: scale of 0 to 10 where 0 is no effect and 10 is complete control
Summary of the method: as §1

rice = assay: Test B flood test rice; assay type: in vivo, Oryza sativa
Summary of the method: (§2)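 Read-out is a visual response score from 0 (no effect) to 10 (complete control), assigned by comparison with untreated controls. Treatment was applied at the 2-leaf stage, and plants stayed in the greenhouse for twelve to sixteen days before scoring.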

smallflower flatsedge = assay: Test B flood test smallflower flatsedge; assay type: in vivo, Cyperus difformis
Summary of the method: as §2

duck salad = assay: Test B flood test duck salad; assay type: in vivo, Heteranthera limosa
Summary of the method: as §2

bamyardgrass = assay: Test B flood test barnyardgrass; assay type: in vivo, Echinochloa crus-galli
Summary of the method: as §2

[1] = Postemergence, Rate 125 g/ha, scale 0 to 10, 0 is no effect, 10 is complete control
[2] = Postemergence, Rate 250 g/ha, scale 0 to 10, 0 is no effect, 10 is complete control
[3] = Preemergence, Rate 62 g/ha, scale 0 to 10 (0 no effect, 10 complete control)
[4] = Rate 500 g/ha, Postemergence, scale 0 to 10, 0 no effect, 10 complete control
[5] = Postemergence (flood test), Rate 125 g/ha, scale 0 to 10, 0 is no effect, 10 is complete control
[6] = Rate 62 g/ha, Postemergence (flood test species), scale of 0 to 10 where 0 is no effect and 10 is complete control
[7] = Rate 62 g/ha, flood test species, Pre-emergence, visual evaluation after twelve to sixteen days
[8] = Rate 125 g/ha, Pre-emergence, flood test species, scale 0 to 10 where 0 is no effect and 10 is complete control
[9] = Rate 250 g/ha, Pre-emergence, flood-test species, scale 0 to 10, 0 is no effect, 10 is complete control
[10] = Rate 500 g/ha, listed under Postemergence (flood test species), scale 0 to 10, 0 no effect, 10 complete control
[11] = Rate 500 g/ha, Pre-emergence, flood test species, scale 0 to 10 (0 no effect, 10 complete control)
[12] = flood test species, listed under Postemergence, Rate 250 g/ha, scale 0 to 10, 0 is no effect, 10 is complete control

CC1CC1n1c(=O)on(C(=O)N(c2ccccc2)C(C)C)c1=O (stereo not shown) [Compound 370]
4: Plant response rating, Blackgrass (blackgrass; [1]) | Plant response rating, Blackgrass (blackgrass; [2]) | Plant response rating, B. signalgrass (surinam grass; [2]) | Corn plant response rating (corn; Preemergence, Rate 250 g/ha) | Plant response rating, Soybean (soybean; [4]) | Velvetleaf plant response rating (0 to 10 scale) (velvetleaf; Preemergence, Rate 125 g/ha) | Plant response rating, Velvetleaf (velvetleaf; [4]) | Plant response rating, S. Flatsedge (smallflower flatsedge; [12])
2: Blackgrass plant response rating (blackgrass; Rate 62 g/ha, Postemergence) | Plant response rating, B. signalgrass (surinam grass; [1]) | B. signalgrass plant response rating (surinam grass; Preemergence, Rate 250 g/ha) | Plant response rating, Cocklebur (cocklebur; [2]) | Corn plant response rating (0 to 10 scale) (corn; Preemergence, Rate 125 g/ha) | Plant response rating, Soybean (soybean; [1]) | Soybean plant response rating (soybean; Preemergence, Rate 250 g/ha) | Plant response rating, Sugarbeets (sugar beet; [3]) | Plant response rating, Velvetleaf (velvetleaf; [3]) | Wheat plant response rating (wheat; Preemergence, Rate 250 g/ha) | Wild oats plant response rating (wild oat; Preemergence, Rate 250 g/ha) | Plant response rating, Rice (rice; [10]) | Plant response rating, Rice (rice; [12]) | S. Flatsedge plant response rating (smallflower flatsedge; [6]) | Plant response rating, Ducksalad (duck salad; [5]) | Plant response rating, Barnyardgrass (bamyardgrass; [10])
7: Plant response rating, Crabgrass (crabgrass; [1]) | Plant response rating, Crabgrass (crabgrass; [2]) | Plant response rating, Crabgrass (crabgrass; [3]) | Soybean plant response rating (soybean; Preemergence, Rate 500 g/ha) | Wheat plant response rating (wheat; Preemergence, Rate 500 g/ha) | Plant response rating, S. Flatsedge (smallflower flatsedge; [10])
1: Soybean plant response rating (soybean; Rate 62 g/ha, Postemergence)
3: Bedstraw plant response rating (0 to 10 scale) (bedstraw; Rate 125 g/ha) | Bedstraw plant response rating (bedstraw; Rate 250 g/ha, scale of 0 to 10 where 0 is no effect and 10 is complete control) | Plant response rating, Cocklebur (cocklebur; [4]) | Crabgrass plant response rating (crabgrass; Rate 62 g/ha, Postemergence) | Plant response rating, Soybean (soybean; [2]) | Sugarbeets plant response rating (0 to 10 scale) (sugar beet; Preemergence, Rate 125 g/ha) | Plant response rating, Wheat (wheat; [4]) | Plant response rating, Wild oats (wild oat; [2]) | Plant response rating, S. Flatsedge (smallflower flatsedge; [5]) | Plant response rating, Ducksalad (duck salad; [10]) | Plant response rating, Ducksalad (duck salad; [12])
6: Plant response rating, Blackgrass (blackgrass; [3]) | Plant response rating, B. signalgrass (surinam grass; [4]) | Velvetleaf plant response rating (velvetleaf; Preemergence, Rate 500 g/ha)
0: Plant response rating, Bedstraw (bedstraw; Rate 62 g/ha, scale 0 to 10 (0 no effect, 10 complete control)) | Plant response rating, B. signalgrass (surinam grass; [3]) | B. signalgrass plant response rating (0 to 10 scale, 0 is no effect, 10 is complete control) (surinam grass; Preemergence, Rate 125 g/ha) | B. signalgrass plant response rating (surinam grass; Rate 62 g/ha, Postemergence) | Plant response rating, Cocklebur (cocklebur; [1]) | Cocklebur plant response rating (0 to 10 scale) (cocklebur; Preemergence, Rate 125 g/ha) | Cocklebur plant response rating (cocklebur; Preemergence, Rate 250 g/ha) | Cocklebur plant response rating (cocklebur; Rate 62 g/ha, Postemergence) | Plant response rating, Corn (corn; [1]) | Plant response rating, Corn (corn; [2]) | Plant response rating, Corn (corn; [3]) | Corn plant response rating (corn; Rate 62 g/ha, Postemergence) | Plant response rating, Soybean (soybean; [3]) | Soybean plant response rating (0 to 10 scale) (soybean; Preemergence, Rate 125 g/ha) | Plant response rating, Sugarbeets (sugar beet; [1]) | Plant response rating, Sugarbeets (sugar beet; [2]) | Sugarbeets plant response rating (sugar beet; Rate 62 g/ha, Postemergence) | Plant response rating, Sugarbeets (sugar beet; [4]) | Plant response rating, Velvetleaf (velvetleaf; [1]) | Plant response rating, Velvetleaf (velvetleaf; [2]) | Velvetleaf plant response rating (velvetleaf; Rate 62 g/ha, Postemergence) | Plant response rating, Wheat (wheat; [1]) | Plant response rating, Wheat (wheat; [2]) | Plant response rating, Wheat (wheat; [3]) | Wheat plant response rating (0 to 10 scale) (wheat; Preemergence, Rate 125 g/ha) | Wheat plant response rating (wheat; Rate 62 g/ha, Postemergence) | Plant response rating, Wild oats (wild oat; [1]) | Plant response rating, Wild oats (wild oat; [3]) | Wild oats plant response rating (0 to 10 scale) (wild oat; Preemergence, Rate 125 g/ha) | Wild oats plant response rating (wild oat; Rate 62 g/ha, Postemergence) | Plant response rating, Nutsedge (purple nutsedge; [1]) | Plant response rating, Nutsedge (purple nutsedge; [2]) | Plant response rating, Nutsedge (purple nutsedge; [3]) | Nutsedge plant response rating (0 to 10 scale) (purple nutsedge; Preemergence, Rate 125 g/ha) | Nutsedge plant response rating (purple nutsedge; Rate 62 g/ha, Postemergence) | Plant response rating, Rice (rice; [5]) | Rice plant response rating (rice; [6]) | Plant response rating, Rice (0 to 10 scale, 0 is no effect, 10 is complete control) (rice; [7]) | Rice plant response rating (rice; [8]) | Rice plant response rating (rice; [9]) | Rice plant response rating (rice; [11]) | Plant response rating, S. Flatsedge (0 to 10 scale, 0 is no effect, 10 is complete control) (smallflower flatsedge; [7]) | S. Flatsedge plant response rating (smallflower flatsedge; [8]) | S. Flatsedge plant response rating (smallflower flatsedge; [9]) | S. Flatsedge plant response rating (smallflower flatsedge; [11]) | Ducksalad plant response rating (duck salad; [6]) | Plant response rating, Ducksalad (0 to 10 scale, 0 is no effect, 10 is complete control) (duck salad; [7]) | Ducksalad plant response rating (duck salad; [8]) | Ducksalad plant response rating (duck salad; [9]) | Ducksalad plant response rating (duck salad; [11]) | Plant response rating, Barnyardgrass (bamyardgrass; [5]) | Barnyardgrass plant response rating (bamyardgrass; [6]) | Plant response rating, Barnyardgrass (0 to 10 scale, 0 is no effect, 10 is complete control) (bamyardgrass; [7]) | Barnyardgrass plant response rating (bamyardgrass; [8]) | Barnyardgrass plant response rating (bamyardgrass; [9]) | Barnyardgrass plant response rating (bamyardgrass; [11]) | Plant response rating, Barnyardgrass (bamyardgrass; [12])
9: Blackgrass plant response rating (blackgrass; Preemergence, Rate 250 g/ha) | Corn plant response rating (corn; Preemergence, Rate 500 g/ha) | Crabgrass plant response rating (crabgrass; Preemergence, Rate 250 g/ha) | Plant response rating, Crabgrass (crabgrass; [4])
5: Plant response rating, Blackgrass (blackgrass; [4]) | B. signalgrass plant response rating (surinam grass; Preemergence, Rate 500 g/ha) | Plant response rating, Corn (corn; [4]) | Sugarbeets plant response rating (sugar beet; Preemergence, Rate 250 g/ha) | Velvetleaf plant response rating (velvetleaf; Preemergence, Rate 250 g/ha) | Plant response rating, Wild oats (wild oat; [4]) | Nutsedge plant response rating (purple nutsedge; Preemergence, Rate 250 g/ha) | Plant response rating, Nutsedge (purple nutsedge; [4])
8: Blackgrass plant response rating (0 to 10 scale) (blackgrass; Preemergence, Rate 125 g/ha) | Crabgrass plant response rating (0 to 10 scale) (crabgrass; Preemergence, Rate 125 g/ha)
10: Blackgrass plant response rating (blackgrass; Preemergence, Rate 500 g/ha) | Cocklebur plant response rating (cocklebur; Preemergence, Rate 500 g/ha) | Crabgrass plant response rating (crabgrass; Preemergence, Rate 500 g/ha) | Wild oats plant response rating (wild oat; Preemergence, Rate 500 g/ha) | Nutsedge plant response rating (purple nutsedge; Preemergence, Rate 500 g/ha)
